According to patent US20090017010A1, “NOVEL ARTEMIS/DNA-DEPENDENT PROTEIN KINASE COMPLEX AND METHODS OF USE THEREOF” (University of Southern California, priority 2002, published 2009):

What was measured:
[1] = system: 20 bp hairpin (DFL16.1); experiment: In vitro nuclease assay: hairpin opening by Artemis proteins; type: biochemical
Description: (§1) Nuclease assays without RAGs were carried out in a total volume of 10 μL with a buffer composition of 25 mM Tris, pH 8.0, 10-50 mM NaCl or KCl, 10 mM MgCl2, 1 mM DTT, and 50 ng/μL of BSA unless otherwise specified. To the buffer mixture, Artemis was added to 2.75 pmol, and DNA-PKcs and Ku were added to 1.25 pmol each. 0.25 mM of ATP (or ADP, ATP-y-S, AMP-PNP) and […] of 35 bp DNA were included where DNA-PKcs was used. Reactions were incubated at 37° C. for 30 minutes. In reactions including DNA-PKcs inhibitors, reaction mixtures without the substrate were incubated on ice for 15 minutes before the addition of the substrate and the subsequent incubation at 37° C. In FIG. 7, pre-phosphorylation of Artemis-myc-His immunobeads was carried out under DNA-PK kinase assay conditions. After washing the treated immunobeads with buffer F for three times and the nuclease assay buffer for two times, the beads were used for the nuclease reactions. In the hairpin opening of RAG-generated hairpins (FIG. 8), the reactions contained 25 mM K-HEPES, pH 7.4, 50 mM KCl, 10 mM MgCl2, 1 mM DTT, 0.25 pmol of labeled 12-RSS double-stranded oligonucleotides (KY28/KY29) and an equal amount of unlabeled 23-RSS double-stranded oligonucleotides (KY36/KY37), 1 pmol of RAGs (assuming that the RAG complex consists of two RAG-1 and two RAG-2 subunits), 2 pmol of HMG1, 2.75 pmol of Artemis-myc-His, and 1.25 pmol of DNA-PKcs (with ATP and 35 bp DNA as described above). For the sequential reactions, substrates were incubated with RAG complex alone first at 37° C. for 60 minutes, extracted with or without phenol/chloroform, then Artemis-myc-His and DNA-PKcs were added, followed by another 30-minute incubation at 37° C. Reactions with the RAG complex, Artemis, and DNA-PKcs added simultaneously were incubated for 90 minutes at the same temperature. After incubation, reactions were stopped by adding an equal volume of formamide gel loading buffer and beating at 100° C. for 5 minutes. DNA was resolved on 12% denaturing polyacrylamide gels. […] Data was analyzed by ImageQuant software (v5.0). […]

[2] = target: dsDNA; details: read-out: equilibrium binding affinity for dsDNA; cited from earlier work
[3] = target: T1, Artemis:DNA-PKcs complex (Homo sapiens, UniProt P78527); experiment: In vitro nuclease assay: effect of a DNA-PKcs inhibitor and of ATP analogs on hairpin opening; type: biochemical; details: for effect of DNA-PKcs (conferring hairpin opening activity on Artemis) when analog is used instead of ATP: 1 mM ATP analog, DFL16.1 hairpin, FIG. 5B lanes 5, 6
T1 construct: Native DNA-PKcs was purified as described (Chan et al., 1996) except that HeLa cells were used as the source; made in house; host or cells: Artemis-myc-His: transfected 293T cells (Ni-NTA, then anti-myc immunobeads); DNA-PKcs: endogenous protein purified from HeLa cells
T1 sequence (P78527 whole entry): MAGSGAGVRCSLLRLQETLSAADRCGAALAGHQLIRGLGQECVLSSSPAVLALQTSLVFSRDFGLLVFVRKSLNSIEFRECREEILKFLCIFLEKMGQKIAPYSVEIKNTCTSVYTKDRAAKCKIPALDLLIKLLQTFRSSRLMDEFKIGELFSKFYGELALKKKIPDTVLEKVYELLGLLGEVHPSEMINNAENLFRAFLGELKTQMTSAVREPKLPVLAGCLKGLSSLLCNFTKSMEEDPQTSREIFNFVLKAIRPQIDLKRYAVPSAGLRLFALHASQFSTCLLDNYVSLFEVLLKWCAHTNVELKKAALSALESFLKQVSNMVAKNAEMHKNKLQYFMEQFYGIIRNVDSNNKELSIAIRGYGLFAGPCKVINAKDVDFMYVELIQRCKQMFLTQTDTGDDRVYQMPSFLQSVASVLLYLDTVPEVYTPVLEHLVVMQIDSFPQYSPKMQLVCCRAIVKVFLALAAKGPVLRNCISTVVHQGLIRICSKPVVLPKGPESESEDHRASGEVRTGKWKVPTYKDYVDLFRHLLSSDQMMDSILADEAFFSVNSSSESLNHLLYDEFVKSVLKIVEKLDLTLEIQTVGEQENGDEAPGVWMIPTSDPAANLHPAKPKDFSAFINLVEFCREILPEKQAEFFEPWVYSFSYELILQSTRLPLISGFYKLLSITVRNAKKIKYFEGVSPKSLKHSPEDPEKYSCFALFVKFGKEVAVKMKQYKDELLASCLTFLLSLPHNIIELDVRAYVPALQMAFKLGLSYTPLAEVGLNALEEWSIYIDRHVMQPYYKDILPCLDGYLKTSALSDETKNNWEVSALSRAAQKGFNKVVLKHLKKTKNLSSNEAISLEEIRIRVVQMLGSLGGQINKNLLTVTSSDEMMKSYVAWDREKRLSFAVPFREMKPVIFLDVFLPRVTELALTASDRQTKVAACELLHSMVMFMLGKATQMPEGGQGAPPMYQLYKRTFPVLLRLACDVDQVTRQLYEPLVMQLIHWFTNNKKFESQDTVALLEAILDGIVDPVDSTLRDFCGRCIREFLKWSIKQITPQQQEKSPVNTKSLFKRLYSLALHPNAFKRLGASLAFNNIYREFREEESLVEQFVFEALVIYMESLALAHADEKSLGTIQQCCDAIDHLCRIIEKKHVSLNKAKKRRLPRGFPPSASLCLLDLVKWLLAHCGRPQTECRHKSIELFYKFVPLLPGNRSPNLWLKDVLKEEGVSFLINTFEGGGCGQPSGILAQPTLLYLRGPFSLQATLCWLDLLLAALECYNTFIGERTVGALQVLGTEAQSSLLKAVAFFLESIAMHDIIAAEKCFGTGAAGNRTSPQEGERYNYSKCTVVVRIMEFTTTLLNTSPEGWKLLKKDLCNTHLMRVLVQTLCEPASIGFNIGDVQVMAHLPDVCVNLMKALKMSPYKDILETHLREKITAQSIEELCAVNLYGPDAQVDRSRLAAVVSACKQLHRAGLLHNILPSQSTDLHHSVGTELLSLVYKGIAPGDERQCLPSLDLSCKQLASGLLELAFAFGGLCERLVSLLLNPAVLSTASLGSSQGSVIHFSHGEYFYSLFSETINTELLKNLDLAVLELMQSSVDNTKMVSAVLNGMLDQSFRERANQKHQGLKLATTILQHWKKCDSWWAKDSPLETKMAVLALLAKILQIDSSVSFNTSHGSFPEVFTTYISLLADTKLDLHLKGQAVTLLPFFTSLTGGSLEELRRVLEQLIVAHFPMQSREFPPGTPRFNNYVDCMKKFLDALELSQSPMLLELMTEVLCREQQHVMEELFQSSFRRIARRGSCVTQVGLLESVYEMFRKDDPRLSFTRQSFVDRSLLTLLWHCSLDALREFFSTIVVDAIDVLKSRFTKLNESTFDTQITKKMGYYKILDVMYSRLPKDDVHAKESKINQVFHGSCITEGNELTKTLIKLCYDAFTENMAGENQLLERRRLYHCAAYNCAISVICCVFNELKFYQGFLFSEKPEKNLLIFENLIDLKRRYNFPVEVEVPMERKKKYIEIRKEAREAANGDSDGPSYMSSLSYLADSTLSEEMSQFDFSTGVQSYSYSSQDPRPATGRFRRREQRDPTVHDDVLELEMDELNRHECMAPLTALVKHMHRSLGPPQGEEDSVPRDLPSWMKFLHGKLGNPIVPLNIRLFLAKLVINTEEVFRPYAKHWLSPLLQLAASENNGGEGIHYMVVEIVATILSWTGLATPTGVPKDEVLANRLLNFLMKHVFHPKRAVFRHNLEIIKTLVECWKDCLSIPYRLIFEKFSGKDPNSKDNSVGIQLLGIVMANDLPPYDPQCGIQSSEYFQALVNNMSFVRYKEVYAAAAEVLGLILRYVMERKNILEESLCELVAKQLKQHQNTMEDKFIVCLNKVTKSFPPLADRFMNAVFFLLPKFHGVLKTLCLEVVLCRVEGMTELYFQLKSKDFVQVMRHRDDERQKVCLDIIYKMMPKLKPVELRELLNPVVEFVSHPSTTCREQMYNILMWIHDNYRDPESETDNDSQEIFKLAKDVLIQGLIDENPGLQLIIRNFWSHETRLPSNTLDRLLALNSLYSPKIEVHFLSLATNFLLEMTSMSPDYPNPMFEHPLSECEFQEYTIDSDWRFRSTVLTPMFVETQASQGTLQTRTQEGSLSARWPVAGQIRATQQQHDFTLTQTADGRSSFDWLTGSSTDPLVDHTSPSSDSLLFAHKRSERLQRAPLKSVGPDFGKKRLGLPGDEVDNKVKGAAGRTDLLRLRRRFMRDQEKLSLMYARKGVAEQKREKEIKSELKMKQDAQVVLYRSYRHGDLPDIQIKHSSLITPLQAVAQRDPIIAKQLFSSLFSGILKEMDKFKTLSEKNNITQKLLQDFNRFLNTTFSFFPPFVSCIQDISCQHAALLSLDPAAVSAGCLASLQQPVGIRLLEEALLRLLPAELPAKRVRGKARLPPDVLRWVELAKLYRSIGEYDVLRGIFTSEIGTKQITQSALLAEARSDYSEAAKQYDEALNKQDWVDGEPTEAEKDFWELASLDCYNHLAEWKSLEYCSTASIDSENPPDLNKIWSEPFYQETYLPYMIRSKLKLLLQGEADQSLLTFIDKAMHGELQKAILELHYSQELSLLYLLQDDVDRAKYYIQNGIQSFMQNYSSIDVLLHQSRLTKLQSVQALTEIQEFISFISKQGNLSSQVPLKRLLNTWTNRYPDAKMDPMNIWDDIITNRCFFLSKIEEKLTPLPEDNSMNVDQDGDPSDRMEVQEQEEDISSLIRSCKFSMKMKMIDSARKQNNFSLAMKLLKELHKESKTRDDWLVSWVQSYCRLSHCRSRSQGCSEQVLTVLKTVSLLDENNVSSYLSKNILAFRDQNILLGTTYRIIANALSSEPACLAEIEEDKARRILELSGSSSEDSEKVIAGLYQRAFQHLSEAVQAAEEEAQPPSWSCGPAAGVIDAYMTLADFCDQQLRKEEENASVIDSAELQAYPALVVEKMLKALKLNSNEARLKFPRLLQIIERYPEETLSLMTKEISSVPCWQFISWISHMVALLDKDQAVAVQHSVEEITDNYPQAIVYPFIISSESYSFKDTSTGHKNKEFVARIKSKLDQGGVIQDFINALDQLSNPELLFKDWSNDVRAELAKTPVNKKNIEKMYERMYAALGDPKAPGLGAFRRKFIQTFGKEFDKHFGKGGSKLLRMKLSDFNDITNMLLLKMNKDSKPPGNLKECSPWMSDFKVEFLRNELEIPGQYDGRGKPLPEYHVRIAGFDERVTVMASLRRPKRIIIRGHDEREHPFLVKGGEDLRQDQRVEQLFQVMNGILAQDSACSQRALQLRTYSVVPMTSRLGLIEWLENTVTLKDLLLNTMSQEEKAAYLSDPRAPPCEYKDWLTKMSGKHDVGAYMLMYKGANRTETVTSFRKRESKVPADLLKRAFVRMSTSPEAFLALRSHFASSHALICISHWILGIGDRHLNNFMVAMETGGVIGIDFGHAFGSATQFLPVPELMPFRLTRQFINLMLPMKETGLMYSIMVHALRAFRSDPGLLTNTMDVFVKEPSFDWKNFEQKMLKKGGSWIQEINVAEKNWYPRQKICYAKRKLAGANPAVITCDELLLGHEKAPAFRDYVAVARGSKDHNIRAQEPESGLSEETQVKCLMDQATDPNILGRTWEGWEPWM
T1 sequence (Q96SD1 whole entry partner): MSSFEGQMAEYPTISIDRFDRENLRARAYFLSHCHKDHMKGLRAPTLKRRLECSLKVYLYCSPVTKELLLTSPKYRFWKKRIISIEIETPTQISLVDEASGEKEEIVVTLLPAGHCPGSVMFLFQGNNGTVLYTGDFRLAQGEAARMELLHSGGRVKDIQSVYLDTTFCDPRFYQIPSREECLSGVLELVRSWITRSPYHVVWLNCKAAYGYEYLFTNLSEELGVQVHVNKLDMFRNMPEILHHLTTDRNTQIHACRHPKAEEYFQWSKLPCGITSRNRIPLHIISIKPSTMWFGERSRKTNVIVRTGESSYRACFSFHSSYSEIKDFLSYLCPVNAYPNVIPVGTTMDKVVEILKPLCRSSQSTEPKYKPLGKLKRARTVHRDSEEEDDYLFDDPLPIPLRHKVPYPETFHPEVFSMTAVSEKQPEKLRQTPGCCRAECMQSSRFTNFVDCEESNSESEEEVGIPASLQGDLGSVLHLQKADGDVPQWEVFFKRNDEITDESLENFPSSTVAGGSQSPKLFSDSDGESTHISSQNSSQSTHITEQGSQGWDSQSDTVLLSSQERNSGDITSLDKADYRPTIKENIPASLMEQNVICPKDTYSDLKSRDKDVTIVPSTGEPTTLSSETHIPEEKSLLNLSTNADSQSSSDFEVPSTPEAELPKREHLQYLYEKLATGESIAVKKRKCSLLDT
Description: as §1

Molecule: Artemis: full-length human Artemis with C-terminal myc-His tag, expressed in 293T cells, used on immunobeads as the enzyme
- hairpin opening ([1]; Artemis alone, without DNA-PKcs, FIG. 5A lane 2): No hairpin opening
- hairpins opened during the time interval ([1]; with DNA-PKcs present, 37° C., 30 minutes, FIG. 5A lanes 4-6, said to be probably an underestimation): about 40%

Molecule: DNA-PKcs: native catalytic subunit of DNA-dependent protein kinase, 469 kDa, purified from HeLa cells
- Kd [2]: ~1 nM

Molecule: Nc1ncnc2c1ncn2[C@@H]1O[C@H](COP(=O)(O)OP(=O)(O)O)[C@@H](O)[C@H]1O [ADP]
- endonucleolytic activity on hairpins and 5′ ends, relative to ATP ([3]; ADP instead of ATP, 20 bp artificial GC hairpin with 6-nucleotide 5′ overhang, FIG. 7 lane 3): lower level of endonucleolytic activity

Molecule: Nc1ncnc2c1ncn2[C@@H]1O[C@H](COP(=O)(O)OP(=O)(O)NP(=O)(O)O)[C@@H](O)[C@H]1O [AMP-PNP]
- effect of DNA-PKcs (conferring hairpin opening activity on Artemis) when analog is used instead of ATP [3]: largely suppressed

Molecule: Nc1ncnc2c1ncn2[C@@H]1O[C@H](COP(=O)(O)OP(=O)(O)OP(O)(O)=S)[C@@H](O)[C@H]1O [ATP-γ-S]
- effect of DNA-PKcs (conferring hairpin opening activity on Artemis) when analog is used instead of ATP [3]: largely suppressed

Molecule: D165N: D165N point mutant of Artemis, same expression vector as wild type
- hairpin opening activity ([1]; in the presence of DNA-PKcs): lacks any hairpin opening activity
